# Molecular target: T1, VPS34 (Homo sapiens, UniProt Q8NEB9)
# T1 construct: GST (N); host or cells: SF9 insect cells (baculovirus)
# Assay: Human VPS34 enzyme assay (Adapta TR-FRET)
# Assay type: biochemical
# Conditions: for inhibition at 1.11 µM: 1 h, at a 1.11 μM concentration, read-out: VPS34 Percent Inhibition
# Method: VPS34 (accession number GB:BCO33004) was cloned into pDEST20-Thombin as N-terminal GST tagged fusion proteins using the Gateway system (Invitrogen, catalog#11804-013). The sequences were verified before recombinant protein expression using the Baculovirus Expression System with Gateway® Technology.
# For expression VPS34 was infected at 1MOI in SF9 cells and harvested 72 hours post infection.
# For purification, VPS34 is purified by Glutathione Sepharose 4 Fast Flow (GE Healthcare #17-5132-03) followed by HiTrap Q (GE Healthcare #17-1153-01).
# Human VPS34 Enzyme Assay Method
# 100 nL compounds in DMSO are added to wells of a 384 well microtitre plate (Greiner 780076). At room temperature: 5 ul VPS34 reaction buffer (Invitrogen Assay Buffer Q (diluted 1 in 5 with nanopure water) plus 2 mM DTT and 2 mM MnCl2) containing ATP (20 uM, Promega) and 200 uM PI-PS substrate (Invitrogen PV5122) is added followed immediately by 5 ul VPS34 reaction buffer (as above) containing VPS34 (5 nM, Millennium Protein Sciences Group) and the mixture is incubated with shaking at room temperature for 1 hour. Then 5 ul VPS34 stop-detect mix (as per Invitrogen Adapta Assay kit (PV5009) instructions (contains kinase quench buffer, TR-FRET buffer, Adapta Eu anti-ADP antibody and Alexa Fluor 647 ADP tracer)) is added to quench the reaction. The plates are then incubated for 30 minutes at room temperature with shaking and then read on a BMG PheraStar Plus reader.
# For the assay methods described above, test compound percent inhibition, at various concentrations, is calculated relative to control (DMSO and EDTA) treated samples. Compound concentration versus percent inhibition curves are fitted to generate IC50 values. One skilled in the art will appreciate that the values generated either as percentage inhibition at a single concentration or IC50 values are subject to experimental variation.
# T1 sequence (Q8NEB9 whole entry): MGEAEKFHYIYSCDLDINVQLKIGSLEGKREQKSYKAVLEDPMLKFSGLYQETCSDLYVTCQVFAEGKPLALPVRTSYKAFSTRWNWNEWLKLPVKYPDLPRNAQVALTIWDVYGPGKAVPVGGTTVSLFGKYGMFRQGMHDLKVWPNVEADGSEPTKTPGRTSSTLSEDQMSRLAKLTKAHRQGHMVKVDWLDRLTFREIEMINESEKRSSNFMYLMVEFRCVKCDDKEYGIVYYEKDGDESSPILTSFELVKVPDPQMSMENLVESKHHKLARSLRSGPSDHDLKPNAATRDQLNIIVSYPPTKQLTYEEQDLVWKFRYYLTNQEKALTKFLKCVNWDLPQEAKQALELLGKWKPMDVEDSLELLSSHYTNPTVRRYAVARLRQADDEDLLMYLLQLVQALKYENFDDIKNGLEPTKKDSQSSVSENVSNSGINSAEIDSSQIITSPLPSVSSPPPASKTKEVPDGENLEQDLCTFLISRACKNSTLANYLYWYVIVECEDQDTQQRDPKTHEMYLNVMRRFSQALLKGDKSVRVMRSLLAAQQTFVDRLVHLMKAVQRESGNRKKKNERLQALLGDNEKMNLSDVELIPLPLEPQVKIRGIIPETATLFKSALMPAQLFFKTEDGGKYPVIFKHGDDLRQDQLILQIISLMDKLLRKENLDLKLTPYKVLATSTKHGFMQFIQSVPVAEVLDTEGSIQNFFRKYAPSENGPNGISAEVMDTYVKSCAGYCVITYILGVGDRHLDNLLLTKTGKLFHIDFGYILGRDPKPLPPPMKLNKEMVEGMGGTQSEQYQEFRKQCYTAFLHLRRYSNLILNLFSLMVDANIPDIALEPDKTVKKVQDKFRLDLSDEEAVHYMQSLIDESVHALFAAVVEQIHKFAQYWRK
SMILES,IC50 [nM],inhibition at 1.11 µM [%]
"O=C(O)c1cn(-c2ccnc(NCCc3ccccc3)n2)nc1-c1ccccc1Cl [I-30, 3-(2-chlorophenyl)-1-{2-[(2-phenylethyl)amino]pyrimidin-4-yl}-1H-pyrazole-4-carboxylic acid]",1000 to 5000,14
"NC(=O)c1cn(-c2ccnc(NCCc3ccc(O)cc3)n2)nc1-c1ccccc1Cl [I-43, 3-(2-chlorophenyl)-1-(2-{[2-(4-hydroxyphenyl)ethyl]amino}pyrimidin-4-yl)-1H-pyrazole-4-carboxamide]",1000 to 5000,27
"CC(=O)Nc1cc(-n2cc(-c3nnc[nH]3)c(I)n2)c(C)cn1 [I-62, N-{4-[3-iodo-4-(1H-1,2,4-triazol-3-yl)-1H-pyrazol-1-yl]-5-methylpyridin-2-yl}acetamide]",150 to 1000,59
"CC(=O)Nc1cc(-n2cc(-c3nc[nH]n3)c(-c3ccc(C(F)(F)F)cc3Cl)n2)c(C)cn1 [I-66, N-(4-{3-[2-chloro-4-(trifluoromethyl)phenyl]-4-(1H-1,2,4-triazol-3-yl)-1H-pyrazol-1-yl}-5-methylpyridin-2-yl)acetamide]",150 to 1000,89
"Cc1cnc(N)cc1-n1cc(C(N)=O)c(-c2cc(CN3CCCC3)ccc2Cl)c1 [I-75, 1-(2-amino-5-methylpyridin-4-yl)-4-[2-chloro-5-(pyrrolidin-1-ylmethyl)phenyl]-1H-pyrrole-3-carboxamide]",1000 to 5000,15
"Cc1cnc(NC(=O)C2CC2)cc1-n1cc(C(N)=O)c(-c2ccccc2Cl)n1 [I-34, 3-(2-chlorophenyl)-1-{2-[(cyclopropylcarbonyl)amino]-5-methylpyridin-4-yl}-1H-pyrazole-4-carboxamide]",150 to 1000,92
"CC(=O)Nc1cc(-n2cc(C(=O)O)c(-c3ccccc3Cl)n2)c(C)cn1 [I-6, 1-(2-acetamido-5-methylpyridin-4-yl)-3-(2-chlorophenyl)-1H-pyrazole-4-carboxylic acid]",150 to 1000,97
"CCc1ccccc1-c1nn(-c2cc(NC(C)=O)ncc2C)cc1-c1nc[nH]n1 [I-57, N-{4-[3-(2-ethylphenyl)-4-(1H-1,2,4-triazol-3-yl)-1H-pyrazol-1-yl]-5-methylpyridin-2-yl}acetamide]",150 to 1000,94
"COCCOC(=O)Nc1cc(-n2cc(C(N)=O)c(-c3ccccc3Cl)c2)c(C)cn1 [I-54, 2-methoxyethyl {4-[3-carbamoyl-4-(2-chlorophenyl)-1H-pyrrol-1-yl]-5-methylpyridin-2-yl}carbamate]",–,> 99
"CC(=O)Nc1cc(-n2cc(-c3nc[nH]n3)c(-c3ccccc3S(C)(=O)=O)c2)ccn1 [I-38, N-(4-{3-[2-(methylsulfonyl)phenyl]-4-(1H-1,2,4-triazol-3-yl)-1H-pyrrol-1-yl}pyridin-2-yl)acetamide]",–,> 99
"NC(=O)c1cn(-c2ccnc3[nH]ccc23)nc1-c1ccccc1Cl [I-7, 3-(2-chlorophenyl)-1-(1H-pyrrolo[2,3-b]pyridin-4-yl)-1H-pyrazole-4-carboxamide]",150 to 1000,88
"O=C(O)c1cn(-c2ccnc(NCCc3ccc(O)cc3)n2)nc1-c1ccccc1Cl [I-29, 3-(2-chlorophenyl)-1-(2-{[2-(4-hydroxyphenyl)ethyl]amino}pyrimidin-4-yl)-1H-pyrazole-4-carboxylic acid]",1000 to 5000,44
"Cc1cnc(NC(=O)C2CC2)cc1-n1cc(-c2ncc[nH]2)c(-c2ccccc2Cl)c1 [I-82, N-{4-[3-(2-chlorophenyl)-4-(1H-imidazol-2-yl)-1H-pyrrol-1-yl]-5-methylpyridin-2-yl}cyclopropanecarboxamide]",–,> 99
"CC(=O)Nc1cc(-n2cc(-c3nc[nH]n3)c(-c3ccccc3Cl)n2)c(Br)cn1 [I-18, N-{5-bromo-4-[3-(2-chlorophenyl)-4-(1H-1,2,4-triazol-3-yl)-1H-pyrazol-1-yl]pyridin-2-yl}acetamide]",150 to 1000,89

# Next, values leading:
IC50 [nM],inhibition at 1.11 µM [%],SMILES
150 to 1000,88,"CC(=O)Nc1cc(-n2cc(C(N)=O)c(-c3ccccc3Cl)c2)c(Cl)cn1 [I-37, 1-(2-acetamido-5-chloropyridin-4-yl)-4-(2-chlorophenyl)-1H-pyrrole-3-carboxamide]"
150 to 1000,81,"CC(=O)Nc1cc(-n2cc(-c3ccccc3)c(-c3nnc[nH]3)c2)c(C)cn1 [I-53, N-{5-methyl-4-[3-phenyl-4-(4H-1,2,4-triazol-3-yl)-1H-pyrrol-1-yl]pyridin-2-yl}acetamide]"
< 50,> 99,"COCCOC(=O)Nc1cc(-n2cc(-c3nc[nH]n3)c(-c3ccccc3Cl)c2)c(C)cn1 [I-78, 2-methoxyethyl {4-[3-(2-chlorophenyl)-4-(1H-1,2,4-triazol-3-yl)-1H-pyrrol-1-yl]-5-methylpyridin-2-yl}carbamate]"
150 to 1000,75,"CC(=O)Nc1cc(-n2cc(-c3nc[nH]n3)c(-c3ccccc3SC(F)(F)F)n2)c(C)cn1 [I-59, N-{5-methyl-4-[4-(1H-1,2,4-triazol-3-yl)-3-{2-[(trifluoromethyl)sulfanyl]phenyl}-1H-pyrazol-1-yl]pyridin-2-yl}acetamide]"
< 50,> 99,"O=C(Nc1cc(-n2cc(-c3nc[nH]n3)c(-c3ccccc3Cl)n2)c(F)cn1)C1CC1 [I-56, N-{4-[3-(2-chlorophenyl)-4-(1H-1,2,4-triazol-3-yl)-1H-pyrazol-1-yl]-5-fluoropyridin-2-yl}cyclopropanecarboxamide]"
< 50,> 99,"Cc1cnc(NC(=O)C2CC2)cc1-n1cc(-c2nc[nH]n2)c(-c2ccccc2Cl)n1 [I-46, N-{4-[3-(2-chlorophenyl)-4-(1H-1,2,4-triazol-3-yl)-1H-pyrazol-1-yl]-5-methylpyridin-2-yl}cyclopropanecarboxamide]"
< 50,> 99,"Cc1cnc(NC(=O)OCCF)cc1-n1cc(-c2nc[nH]n2)c(-c2ccccc2Cl)c1 [I-81, 2-fluoroethyl {4-[3-(2-chlorophenyl)-4-(1H-1,2,4-triazol-3-yl)-1H-pyrrol-1-yl]-5-methylpyridin-2-yl}carbamate]"
< 50,> 99,"CC(=O)Nc1cc(-n2cc(-c3nc[nH]n3)c(-c3cc(CN(C)C)ccc3Cl)n2)c(C)cn1 [I-42, N-{4-[3-{2-chloro-5-[(dimethylamino)methyl]phenyl}-4-(1H-1,2,4-triazol-3-yl)-1H-pyrazol-1-yl]-5-methylpyridin-2-yl}acetamide]"
< 50,> 99,"Cc1cnc(NC(=O)C2CC2)cc1-n1cc(-c2ncc[nH]2)c(-c2ccccc2Cl)n1 [I-60, N-{4-[3-(2-chlorophenyl)-4-(1H-imidazol-2-yl)-1H-pyrazol-1-yl]-5-methylpyridin-2-yl}cyclopropanecarboxamide]"
< 50,> 99,"COC(=O)Nc1cc(-n2cc(-c3nc[nH]n3)c(-c3ccccc3Cl)n2)ccn1 [I-17, methyl {4-[3-(2-chlorophenyl)-4-(1H-1,2,4-triazol-3-yl)-1H-pyrazol-1-yl]pyridin-2-yl}carbamate]"
< 50,> 99,"CCC(=O)Nc1cc(-n2cc(-c3nc[nH]n3)c(-c3ccccc3Cl)c2)c(C)cn1 [I-50, N-{4-[3-(2-chlorophenyl)-4-(1H-1,2,4-triazol-3-yl)-1H-pyrrol-1-yl]-5-methylpyridin-2-yl}propanamide]"
< 50,> 99,"CC(=O)Nc1cc(-n2cc(-c3nnc[nH]3)c(-c3ccc(Cl)cc3Cl)n2)c(C)cn1 [I-39, N-{4-[3-(2,4-dichlorophenyl)-4-(4H-1,2,4-triazol-3-yl)-1H-pyrazol-1-yl]-5-methylpyridin-2-yl}acetamide]"
< 50,> 99,"CC(=O)Nc1cc(-n2cc(-c3nc[nH]n3)c(-c3ccccc3Cl)n2)c(C)cn1 [I-5, N-{4-[3-(2-chlorophenyl)-4-(1H-1,2,4-triazol-3-yl)-1H-pyrazol-1-yl]-5-methylpyridin-2-yl}acetamide]"
< 50,> 99,"COC(=O)Nc1cc(-n2cc(-c3ncc[nH]3)c(-c3ccccc3Cl)n2)c(C)cn1 [I-64, methyl {4-[3-(2-chlorophenyl)-4-(1H-imidazol-2-yl)-1H-pyrazol-1-yl]-5-methylpyridin-2-yl}carbamate]"
< 50,> 99,"Cc1cnc(NC(=O)C2CC2)cc1-n1cc(-c2nc[nH]n2)c(-c2cc(CN3CCCC3)ccc2Cl)c1 [I-84, N-(4-{3-[2-chloro-5-(pyrrolidin-1-ylmethyl)phenyl]-4-(1H-1,2,4-triazol-3-yl)-1H-pyrrol-1-yl}-5-methylpyridin-2-yl)cyclopropanecarboxamide]"

# From patent US20130165464A1, “HETEROARYLS AND USES THEREOF” (MILLENNIUM PHARMACEUTICALS, INC., priority 2011, published 2013)
